Test results taken from the NIST ThermoML archive (doi:10.1021/je700486g).
± gives the expanded uncertainty stated by the source.

Details: Crystal; visual observation

Which Normal melting temperature does the source give for `CC(=O)Oc1ccccc1C(=O)O` [2-acetoxybenzoic acid] here?
Its Normal melting temperature is 135.4 ± 1.1 °C.

For `O=C(O)c1ccccc1O` [2-hydroxybenzoic acid], which Normal melting temperature is on record?
Its Normal melting temperature is 159 ± 1 °C.

Which Normal melting temperature does the source give for `O=C(O)c1ccccc1` [benzoic acid] here?
The Normal melting temperature was 122 ± 1 °C.

For `c1ccc2c(c1)-c1cccc3cccc-2c13` [fluoranthene], which Normal melting temperature is on record?
The Normal melting temperature was 108.4 ± 3 °C.
